# Target: T1, Human orexin receptor type 2 (Homo sapiens, UniProt O43614)
# T1 sequence (O43614 1-444): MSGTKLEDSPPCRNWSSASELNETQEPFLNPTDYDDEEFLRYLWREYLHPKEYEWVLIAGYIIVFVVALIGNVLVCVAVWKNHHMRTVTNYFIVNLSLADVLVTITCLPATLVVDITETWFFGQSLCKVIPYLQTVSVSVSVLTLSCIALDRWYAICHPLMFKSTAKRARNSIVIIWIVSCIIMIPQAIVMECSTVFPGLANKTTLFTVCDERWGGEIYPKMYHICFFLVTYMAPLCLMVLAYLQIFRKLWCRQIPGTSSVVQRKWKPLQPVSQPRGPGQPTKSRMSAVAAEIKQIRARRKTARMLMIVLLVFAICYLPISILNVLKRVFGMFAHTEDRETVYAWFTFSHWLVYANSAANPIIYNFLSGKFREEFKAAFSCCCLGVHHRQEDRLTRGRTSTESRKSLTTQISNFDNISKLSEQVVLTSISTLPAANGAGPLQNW
# Assay: Test Example 1: agonist activity for orexin receptor type 2 (aequorin luminescence, intracellular calcium mobilization)
# Conditions: compound 10 μm; CHO cells transiently expressing human orexin receptor type 2 and apoaequorin; relative percentage of luminescence for the luminescence (100%) of Orexin A (100 μM)
# Protocol: Human orexin receptor type 2 and apoaequorin were transiently expressed in CHO cells, and the agonist activity was evaluated based on intracellular calcium mobilization with ligand stimulation. The CHO cells transiently-expressed human orexin receptor type 2 and apoaequorin were seeded on a 384-well plate by 2,000 cells/well, and then incubated for 16-22 hours. After the plate was returned to room temperature, Coelenterazine hcp (final concentration: 1 μM) was added to the plate, and the plate was allowed to stand at room temperature for 2 hours. And then, Orexin A or each test compound was added to the plate, and the luminescence of the cells was measured with FDSS7000 (Hamamatsu Photonics K. K.), wherein Orexin A and each test compound were dissolved in DMSO (final concentration: 0.1%), and diluted with a buffer (Hanks, 20 mM HEPES, 0.1% BSA). The agonist activity of each test compound for orexin receptor type 2 was calculated as relative percentage of luminescence for the luminescence (100%) of Orexin A (100 μM).
row,SMILES,Agonist Activity (%)
1,Cc1ccc(C2CCN(C(=O)Nc3ccccc3N3CCN(C(C)C)CC3)CC2)cc1 [Example 121],130%
2,"CCN1CCN(c2ccccc2NC(=O)N2CCC(c3nc4ccccc4o3)CC2)CC1 [Example 2, 4-(1,3-benzoxazol-2-yl)-N-[2-(4-ethylpiperazin-1-yl)phenyl]piperidine-1-carboxamide]",35%
3,"COc1cccc(C2CCN(C(C)C)CC2)c1NC(=O)N1CCC(c2ccc(C)cc2)CC1 [Example 48, N-{2-methoxy-6-[1-(propan-2-yl)piperidin-4-yl]phenyl}-4-(4-methylphenyl)piperidine-1-carboxamide]",146%
4,"Cc1ccc(C2CCN(C(=O)Nc3c(F)cccc3C3=CCN(C(CF)CF)CC3)CC2)cc1 [Example 136, N-{2-[1-(1,3-difluoropropan-2-yl)-1,2,3,6-tetrahydropyridin-4-yl]-6-fluorophenyl}-4-(4-methylphenyl)piperidine-1-carboxamide]",105%
5,"Cc1ccc(C2CCN(C(=O)Nc3ccccc3N3CCN(C(C)C)C(C)C3)CC2)cc1 (racemic) [Example 28, Rac-4-(4-methylphenyl)-N-{2-[3-methyl-4-(propan-2-yl)piperazin-1-yl]phenyl}piperidine-1-carboxamide]",104%
6,"COc1cccc(N2CCN(C(C)C)CC2)c1NC(=O)N1CCC(c2ccc(C(F)(F)F)cc2)CC1 [Example 15, N-{2-methoxy-6-[4-(propan-2-yl)piperazin-1-yl]phenyl}-4-[4-(trifluoromethyl)phenyl]piperidine-1-carboxamide]",101%
7,"CCOc1cccc(C2CCN(C(C)CC)CC2)c1NC(=O)N1CCC(c2ccc(C)cc2)CC1 (stereo not drawn) [Example 128, N-{2-[1-(butan-2-yl)piperidin-4-yl]-6-ethoxyphenyl}-4-(4-methylphenyl)piperidine-1-carboxamide]",136%
8,"Cc1ccc(C2CCN(C(=O)Nc3c(F)cccc3C3=CCN(C(C)CF)CC3)CC2)cc1 (stereo not drawn) [Example 134, N-{2-fluoro-6-[1-(1-fluoropropan-2-yl)-1,2,3,6-tetrahydropyridin-4-yl]phenyl}-4-(4-methylphenyl)piperidine-1-carboxamide]",135%
9,"Cc1ccc(C2CCN(C(=O)Nc3c(F)cccc3N3CCN(C(C)C)CC3)CC2C)cc1 (racemic) [Example 26, Rac-N-{2-fluoro-6-[4-(propan-2-yl)piperazin-1-yl]phenyl}-3-methyl-4-(4-methylphenyl)piperidine-1-carboxamide]",63%
10,"CC1(c2cc(C3CC3)on2)CCN(C(=O)Nc2c(F)cccc2-c2ccc(C(F)(F)F)nc2)CC1.Cl [Example 71, 4-(5-cyclopropyl-1,2-oxazol-3-yl)-N-{2-fluoro-6-[6-(trifluoromethyl)pyridin-3-yl]phenyl}-4-mehylpiperidine-1-carboxamide hydrochloride]",88%
11,"COc1cccc(CN2CCN(C(C)C)CC2)c1NC(=O)N1CCC(c2ccc(C)cc2)CC1 [Example 63, N-(2-methoxy-6-{[4-(propan-2-yl)piperazin-1-yl]methyl}phenyl)-4-(4-methylphenyl)piperidine-1-carboxamide]",26%
12,"CC(C)N1CCN(c2cccc(F)c2NC(=O)N2CCC(Oc3ccccc3)CC2)CC1 [Example 27, N-{2-fluoro-6-[4-(propan-2-yl)piperazin-1-yl]phenyl}-4-phenoxypiperidine-1-carboxamide]",129%
13,"CC(C)N1CCN(c2ccccc2NC(=O)N2CCC(c3ccccc3)CC2)CC1 [Example 7, 4-phenyl-N-{2-[4-(propan-2-yl)piperazin-1-yl]phenyl}piperidine-1-carboxamide]",154%

# Results, then the compound that gave them:
row,Agonist Activity (%),SMILES
1,94%,"CCCN1CCCN(c2ccccc2NC(=O)N2CCC(C)(c3noc(C4CC4)n3)CC2)CC1 [Example 157, 4-(5-cyclopropyl-1,2,4-oxadiazol-3-yl)-4-methyl-N-[2-(4-propyl-1,4-diazepan-1-yl)phenyl]piperidine-1-carboxamide]"
2,160%,"CC(C)N1CCN(c2cccc(Cl)c2NC(=O)N2CCC(C)(c3nnc(C4CC4)s3)CC2)CC1 [Example 102, N-{2-chloro-6-[4-(propan-2-yl)piperazin-1-yl]phenyl}-4-(5-cyclopropyl-1,3,4-thiadiazol-2-yl)-4-methylpiperidine-1-carboxamide]"
3,157%,"CC(C)N1CCN(c2cccc(Cl)c2NC(=O)N2CCC(C)(c3ncc(C4CC4)s3)CC2)CC1 [Example 101, N-{2-chloro-6-[4-(propan-2-yl)piperazin-1-yl]phenyl}-4-(5-cyclopropyl-1,3-thiazol-2-yl)-4-methylpiperidine-1-carboxamide]"
4,125%,"Cc1nc(C2(C)CCN(C(=O)Nc3ccccc3N3CCN(C(C)C)CC3)CC2)no1 [Example 120, 4-methyl-4-(5-methyl-1,2,4-oxadiazol-3-yl)-N-{2-[4-(propan-2-yl)piperazin-1-yl]phenyl}piperidine-1-carboxamide]"
5,150%,"CC1(c2noc(C3CC3)n2)CCN(C(=O)Nc2c(Cl)cccc2C2=CCN(C3CCC3)CC2)CC1 [Example 131, N-[2-chloro-6-(1-cyclobutyl-1,2,3,6-tetrahydropyridin-4-yl)phenyl]-4-(5-cyclopropyl-1,2,4-oxadiazol-3-yl)-4-methylpiperidine-1-carboxamide]"
6,132%,"Cc1ccc(C2CCN(C(=O)Nc3c(F)cccc3N3CCN(C(C)C)CC3)CC2)cc1 [Example 9, N-{2-fluoro-6-[4-(propan-2-yl)piperazin-1-yl]phenyl}-4-(4-methylphenyl)piperidine-1-carboxamide]"
7,152%,"CCC1(c2noc(C3CC3)n2)CCN(C(=O)Nc2c(Cl)cccc2N2CCN(C(C)C)CC2)CC1 [Example 89, N-{2-chloro-6-[4-(propan-2-yl)piperazin-1-yl]phenyl}-4-(5-cyclopropyl-1,2,4-oxadiazol-3-yl)-4-ethylpiperidine-1-carboxamide]"
8,145%,"COc1cccc(N2CCN(C(C)C)CC2)c1NC(=O)N1CCC(c2ccc(C)cc2)CC1 [Example 8, N-{2-methoxy-6-[4-(propan-2-yl)piperazin-1-yl]phenyl}-4-(4-methylphenyl)piperidine-1-carboxamide]"
9,148%,"CC(C)N1CCC(Oc2cccc(Cl)c2NC(=O)N2CCC(C)(c3noc(C4CC4)n3)CC2)C1 (racemic) [Example 110, Rac-N-(2-chloro-6-{[1-(propan-2-yl)pyrrolidin-3-yl]oxy}phenyl)-4-(5-cyclopropyl-1,2,4-oxadiazol-3-yl)-4-methylpiperidine-1-carboxamide]"
10,180%,"CC(C)N1CCN(c2cccc(Cl)c2NC(=O)N2CCC(C)(c3noc([C@@H]4C[C@@H]4C)n3)CC2)CC1 (racemic) [Example 104, Rac-N-{2-chloro-6-[4-(propan-2-yl)piperazin-1-yl]phenyl}-4-methyl-4-{5-[(1R,2S)-2-methylcyclopropyl]-1,2,4-oxadiazol-3-yl}piperidine-1-carboxamide]"
11,47%,"Cc1ccccc1C1CCN(C(=O)Nc2c(F)cccc2N2CCN(C(C)C)CC2)CC1 [Example 37, N-{2-fluoro-6-[4-(propan-2-yl)piperazin-1-yl]phenyl}-4-(2-methylphenyl)piperidine-1-carboxamide]"

# — patent publication US20240308960A1 (Sumitomo Pharma Co., Ltd., priority 2021, published 2024)
